The conditions of data set [1]: cited from earlier work.
Data set [2] has as its system blood D-glucose. In words: Insulin eye drops with absorption enhancer in xylazine/ketamine-anesthetized hyperglycemic rats, blood D-glucose. It counts as in vivo, rat. The conditions noted are these: for Blood Glucose: before eye drops.
Data set [3] concerns blood D-glucose. Put plainly: Insulin nose drops with tetradecylmaltoside in rats, blood glucose. The note with it: nose drop, same insulin concentration with 0.5% tetradecylmaltoside. In kind it is in vivo, rat. From the text: Tetradecylmaltoside (TDM) in combination with insulin also produced a drop in blood D-glucose levels when administered in the form of a drop intranasally as well as via a drop by the ocular route. […] Thus, intranasal delivery and administration of the alkyl saccharide with drug results in lowering of blood glucose levels.

Data set [4] deals with Aspergillus niger (ATCC No. 16404). Put plainly: Antimicrobial activity of alkylglycoside solutions, plate count log reduction. In kind it is cell-based. The conditions noted are these: 0.2%, BSA. From the text: (§1) 20110-2209. The viable microorganisms used in the invention were not more than five passages removed from the original ATCC culture. As described herein, one passage is defined as the transfer of organisms from an established culture to fresh medium and all transfers are counted.
(§2) Cultures received from the ATCC are resuscitated according to the directions provided by the ATTC. Cells grown in broth were pelleted by centrifugation, resuspended in 1/20th the volume of fresh maintenance broth, and combined with an equal volume of 20% (v/v in water) sterile glycerol. Cells grown on agar were scraped from the surface into the maintenance broth also containing 10% glycerol broth. Small aliquots of the suspension were dispensed into sterile vials and the vials were stored in liquid nitrogen or in a mechanical freezer at a temperature no higher than about −50° C. When a fresh seed-stock vial was required, it was removed and used to inoculate a series of working stock cultures. These working stock cultures were then used periodically (each day in the case of bacteria and yeast) to start the inoculum culture.
(§3) The culture conditions for the inoculum culture is substantially as described in Table IV. For example, suitable media can include but is not limited to, Soybean-Casein Digest or Sabouraud Dextrose Agar Medium. […]
(§4) The suspension should be refrigerated if it is not used within 2 hours. To confirm the initial cfu per mL estimate, the number of cfu per mL in each suspension was determined using the conditions of media and microbial recovery incubation times listed in Table IV (e.g., from about 3 to about 7 days). This value serves to calibrate the size of inoculum used in the test. The bacterial and yeast suspensions were used within 24 hours of harvest; whereas the fungal preparation can be stored under refrigeration for up to 7 days.
(§5) To determine which alkylglycoside formulations have antibacterial activity, the formulations were prepared in phosphate buffered saline (PBS) at pH 7. As a source of nutrition, either 1.5 mg/mL bovine serum albumin (BSA; see Tables V and VI) or 1 mg/mL of PYY was added (see Table VII) to the medium. BSA (CAS Number: 9048-46-8) was obtained from Sigma-Aldrich, St. Louis, Mo., USA, n-dodecyl-4-O-α-D-glucopyranosyl-β-D-glucopyranoside and n-tetradecyl-4-O-α-D-glucopyranosyl-β-D-glucopyranoside were obtained from Anatrace Inc., Maumee, Ohio, USA, and PYY was obtained from Bachem California Inc., Torrance, Calif., USA.
(§6) Antibacterial activity of the alkylglycosides were conducted in four sterile, capped bacteriological containers of suitable size into which a sufficient volume of alkylglycoside solution had been transferred. Each container was inoculated with one of the prepared and standardized inoculums and mixed. The volume of the suspension inoculum was between about 0.5% and about 1.0% of the volume of the alkylglycoside solution. […]. To determine the level of inhibition of growth, or reduction of growth based on a logarithmic scale, the initial concentration of viable microorganisms in each test preparation was estimated based on the concentration of microorganisms in each of the standardized inoculum as determined by the plate-count method. The inoculated containers were then incubated at about 22.5° C.±2.5. The growth or non-growth of the microorganisms in each culture/container were again determined at day 14 and day 28. The number of cfu present in each calculation was determined by the plate-count procedure standard in the art for the applicable intervals. The change in the orders of magnitude of bacterium and/or fungi was then determined by subtracting the first calculated log 10 values of the concentrations of cfu per mL present at the start or beginning (e.g., day 0), from the log 10 values of the concentration of cfu per mL for each microorganism at the applicable test intervals (e.g., day 14 and day 28; see Tables V, VI and VII).

In data set [5] the test system is Candida albicans (ATCC No. 10231). The description is as above. In kind it is cell-based. The conditions noted are these: 0.2%, BSA.
Text: as §1, §2, §3, §4, §5, §6

The test system of data set [6] is Escherichia coli (ATCC No. 8739). Described as above. It counts as cell-based. The conditions noted are these: 0.2%, BSA; growth from initial count.
Text: as §1, §2, §3, §4, §5, §6

Data set [7] has as its system Staphylococcus aureus (ATCC No. 6538). The description is as above. In kind it is cell-based. The note with it: 0.2%, BSA.
Text: as §1, §2, §3, §4, §5, §6

Data set [8] is described as follows: Intranasal triptans with alkylsaccharide in rats, plasma levels by HPLC.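 Further: rats in groups of eight given 20 µL into one nostril, dose expressed as triptan free base, Cmax and Tmax read from plasma concentration–time curves.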 It counts as in vivo.
Protocol: Each set of drug solutions is administered to six groups of eight rats each by 20 uL instillation to a single nare of each animal. […] After the last blood sample is collected each animal is cuthanizcd with CO2. After blood collection, plasma is immediately prepared from each blood sample using lithium/heparin as the anticoagulant. Plasma samples are stored at −70° C. until analyzed. […] The observed Tmax values from each plot is determined by inspection of the concentration vs time plots and recorded as shown in Table XII. The doses designated in this table reflect amounts of triptan free base in each case.
A further data set deals with human nasal epithelium. The conditions noted are these: in vivo.
Data set [9] is described as follows: Naratriptan sublingual spray two-way crossover study in patients. The conditions noted are these: in the presence of 0.18-0.2% alkylsaccharide (dodecylmaltoside). In kind it is in vivo. The method, then:
Manufacturing process: Naratriptan hydrochloride salt is dissolved in water and required quantity of polyethylene glycol or ethanol is added. The alkyl glycoside, flavors, aspartame are next dissolved in the solution. Final adjustment of volume is made with water. The sublingual formulation with and without dodecylmaltoside alkylsaccharide is administered using a metered spray pump to 20 patients in a two way, two period cross over study.

[10] abbreviates: Naratriptan 0.22 mg/kg intranasal, alkylsaccharide 0.02%.
[11] abbreviates: Naratriptan 0.22 mg/kg intranasal, alkylsaccharide 0.05%.
Where [12] appears, read: Naratriptan 0.22 mg/kg intranasal, alkylsaccharide 0.1%.
Setting [13] is: Naratriptan 0.22 mg/kg intranasal, alkylsaccharide 0.5%.
Setting [14] is: Naratriptan 0.22 mg/kg intranasal, alkylsaccharide 2%.
Setting [15] is: Sumatriptan 6.2 mg/kg intranasal, alkylsaccharide 0.02%.
Where [16] appears, read: Sumatriptan 6.2 mg/kg intranasal, alkylsaccharide 0.05%.
[17] abbreviates: Sumatriptan 6.2 mg/kg intranasal, alkylsaccharide 0.1%.
Where [18] appears, read: Sumatriptan 6.2 mg/kg intranasal, alkylsaccharide 0.5%.
Setting [19] is: Sumatriptan 6.2 mg/kg intranasal, alkylsaccharide 2%.

The source of these data is patent US9283280B2, “Compositions for drug administration” (Aegis Therapeutics, LLC, priority 2008, dated 2016).

Regarding `O=C(c1ccc(OCCN2CCCCC2)cc1)c1c(-c2ccc(O)cc2)sc2cc(O)ccc12` [raloxifene], the water solubility result in data set [1] is listed as “approx. 0.25 mg/L”.
What is called Tmax is the time from dosing to the highest level. Turning to `CCCCCCCCCCCCCCO[C@@H]1O[C@H](CO)[C@@H](O[C@H]2O[C@H](CO)[C@@H](O)[C@H](O)[C@H]2O)[C@H](O)[C@H]1O` [tetradecyl maltoside, n-tetradecyl-4-O-α-D-glucopyranosyl-β-D-glucopyranoside], the “hypoglycemic effect / insulin absorption enhancement” value with blood D-glucose [2] (eye drops 0.2% insulin + 0.5% enhancer) and in the data set on blood D-glucose [2] (eye drops 0.2% insulin + […] enhancer) was “effective” each time. For the same molecule, the “effect on blood glucose levels” value is “prompt and prominent drop in blood glucose levels” in the data set on blood D-glucose [2] (eye drops 0.2% regular porcine insulin with […] tetradecylmaltoside); “decrease even more” with blood D-glucose [3]. In addition, the “Blood Glucose” value in the data set on blood D-glucose [2] (time −10 min) was found to be 311 mg/dL; in the data set on blood D-glucose [2] (time −20 min), 319 mg/dL. The “Log Reductions, Day 14” value was 0.5 orders of orders of magnitude reduction in [4], 3.0 orders of orders of magnitude reduction in data set [5] and “≧5 orders of orders of magnitude reduction” in data set [7]. Besides, the “Log Reductions, Day 28” value in [4] (growth from initial count) is “No growth”; in data set [5], “≧5.4 orders of orders of magnitude reduction”; in data set [6], “No growth”; in data set [7], “≧5 orders of orders of magnitude reduction”. Also, the “Ratio Cmax(alkylsacch)/Cmax(No alkylsacch)” value in [8] (setting [10]) was “≦1.5”; in [8] (setting [11]), “≧1.5”; in [8] (setting [12]) it was “≧1.5”; in data set [8] (setting [13]), “≧1.5”; in data set [8] (setting [14]), “≧1.5”; in data set [8] (setting [15]) it was “≦1.5”. The “Ratio Cmax(alkylsacch)/Cmax(No alkylsacch)” value in data set [8] (setting [16]), in [8] (setting [17]), in data set [8] (setting [18]) and in data set [8] (setting [19]) was “≧1.5” each time. Moreover, the time to peak (Tmax) in [8] (setting [10]) was approximately 60 min; in [8] (setting [11]), approximately 5 to 15 min; in data set [8] (setting [12]), approximately 5 to 15 min; in data set [8] (setting [13]), approximately 5 to 15 min; in data set [8] (setting [14]), approximately 5 to 15 min; in data set [8] (Rizatriptan […] intranasal, alkylsaccharide 0.02%) it was approximately 60 min. The Tmax in [8] (Rizatriptan […] intranasal, alkylsaccharide 0.05%) is approximately 5 to 15 min; in data set [8] (Rizatriptan […] intranasal, alkylsaccharide 0.1%), approximately 5 to 15 min; in data set [8] (Rizatriptan […] intranasal, alkylsaccharide 0.5%), approximately 5 to 15 min; in [8] (Rizatriptan […] intranasal, alkylsaccharide 2%), approximately 5 to 15 min; in data set [8] (setting [15]) it was approximately 60 min; in [8] (setting [16]), approximately 5 to 15 min. The Tmax in data set [8] (setting [17]), in [8] (setting [18]) and in data set [8] (setting [19]) was approximately 5 to 15 min throughout. In the data set on human nasal epithelium, the “irritation of the nasal mucosa” value is “no observable irritation”.
`CNS(=O)(=O)CCc1ccc2[nH]cc(C3CCN(C)CC3)c2c1` [naratriptan]: the “bioavailability across the sublingual mucosal membranes” value in [9] is reported as “little increase”.
